Experimental data published in patent publication US20040014671A1, “Preventives or remedies for heart failure” (priority 2000, published 2004).
Where a SMILES comes first, the peptide text is derived from it. [ ]: non-standard residue; d: D form. dTrp(2-Me) = Cc1[nH]c2ccccc2c1C[C@@H](N)C(=O)O; d2Nal = N[C@H](Cc1ccc2ccccc2c1)C(=O)O

Tests used:
[1] = system: anesthetized open-chest rabbits; test: Cardiac function of anesthetized open-chest rabbit after intravenous administration; assay type: in vivo
Experimental: The effects of pralmorelin on cardiac function were evaluated by measuring various parameters [blood pressure, heart rate, systolic left ventricular pressure (LVPsys), and maximal positive dP/dt (+dP/dtmax) obtained by differentiating the waveform of left ventricular pressure (LVP)]. The value of the maximal positive dP/dt for the left ventricular pressure (+dP/dtmax) is particularly important to determine if the cardiotonic action is sufficient to treat acute heart failure.
Pralmorelin dihydrochloride (hereunder referred to as KP-102) (prepared by the method described in WO 9304081) was dissolved in distilled water for injection to prepare a 1.5 mg/mL solution.
Male NZW-strain rabbits (Kitayama Labes) weighing about 2 kg were used in the experiment. After arrival, the animals were allowed to eat a solid meal (Labo R Stock, Oriental Yeast Co., Ltd.) and drink water in a room at a temperature of 20±2° C. and at a humidity of 55±15% under 12-hr light/ dark cycles (from 7:00 to 19:00); the animals were kept under these conditions for at least 6 days before use.
Rabbits were anesthetized by administering 30 mg/kg of sodium pentobarbital into the auricular vein at a slow speed with attention to their breathing. The animals were then fixed in supine position and an endotracheal cannula was inserted. Under artificial respiration (tidal volume, 25 mL/breath; ventilation frequency, 45 breaths/min: SN-480-7 of Shinano Seisakusyo), the chest of each animal was opened by midline incision and the pericardium was incised to expose the heart. The left ventricular pressure (LVP) was measured with a pressure transducer (TP-300T, Nihon Kohden) and a pressure amplifier (AG-610G, Nihon Kohden) as a cannula with syringe was inserted from the cardiac apex into the left ventricle. The waveform of LVP was differentiated with a differentiator unit (ED-601, Nihon Kohden) to determine the maximal positive dP/dt(+dP/dtmax), which was used as an index for cardiac contractility. Blood pressure was measured with a pressure amplifier (AP-610G, Nihon Kohden) via a pressure transducer (TP-300T, Nihon Kohden) connected to a cannula inserted into the left femoral artery. Heart rate was measured with a cardiotachometer (AT-601G, Nihon Kohden) that was driven by counting the pulse waves of LVP. The parameters mentioned above were recorded on a recorder (TA-11, Gould). A cannula was inserted into the left femoral vein so as to assist in the administration of the test substance. The rectum temperature of each animal was controlled at 39° C. with a body temperature controller (TK-43, Asahi Denshi). The anesthetic was added as required but additional anesthetization should be avoided during the measurements.
After each parameter stabilized, distilled water (0.2 mL/kg) was administered over one minute with an infusion pump (FP-W-100, Toyo Sangyo K.K.) and observations were made for 5 minutes after the administration to see whether the vehicle would have no effect. About 5 minutes after the administration of distilled water, the test substance was administered with an infusion pump in a volume of 0.2 mL/kg over one minute according to the grouping method specified above. Each hemodynamic parameter was measured both before administration and 1, 3, 5, 10, 15, 20 and 25 minutes after administration and the percent changes from the basal values were calculated. In some animals, measurement was conducted until 40 minutes after the administration of the test substance.
The results were each expressed by mean ± standard deviation. Any difference between groups was tested by repeated measures ANOVA (analysis of variance); The significance level was set at 5%.

[2] = system: dogs with occluded anterior descending coronary artery; test: Cardiac function of dog with anterior descending coronary artery occlusion after intravenous administration; assay type: in vivo; details: 100 μg/kg intravenously after occlusion
Experimental: Using a dog model of acute contractile dysfunction caused by occlusion of the anterior descending coronary artery, the inventors studied the cardiotonic action of pralmorelin.
The action of pralmorelin on the cardiac dysfunction deteriorated by occlusion of the coronary artery was evaluated by various hemodynamic parameters, cardiac output (CO), stroke volume (SV), maximal positive dP/dt of left ventricular pressure (+dP/dtmax), ejection fraction (EF), mean blood pressure (MBP), heart rate (HR), total peripheral resistance (TPR) and double product (RPP) as an index of myocardial oxygen consumption.
Pralmorelin dihydrochloride (hereunder referred to as KP-102) (prepared by the method described in WO 9304081) was dissolved in distilled water to prepare a 0.5 mg/mL solution.
In the experiment, adult beagles of either sex (weighing 9-11 kg) purchased from Nihon Nosan Kogyo K.K. (Kanagawa, Japan) were used. After arrival, the animals were allowed to eat a solid meal (CD-5, CLEA Japan, Inc. or Labo D Stock, Nark Corp.) and drink water in a room at a temperature of 20±2° C. and at a humidity of 55±15% under illumination for 12 hours a day (from 7:00 to 19:00); the animals were kept under these conditions for at least one week before use.
Anesthesia was introduced by intravenous administration of pentobarbital (30 mg/kg) and in order to maintain anesthesia, pentobarbital (5-6 mg/kg/hr) was injected continuously by means of an infusion pump (FP-W-100, Toyo Sangyo) through a polyethylene cannula retained in the right cephalic vein. The endotracheal cannula was inserted and the chest was opened at the left fourth intercostal space under artificial respiration in a tidal volume of 20 mL/kg at a rate of 18 breaths/min with an artificial respirator (SN-480-3 of Shinano Seisakusho). The left anterior descending coronary artery was carefully detached from the site of origin over a length of 1-2 cm and an occluding thread was passed through.
The chest was opened at the left fifth intercostal space and a 5-segment conductance catheter (CCS-108-DA, Unique Medical) was inserted from the cardiac apex so that all electrodes would be placed in the left ventricle. A catheter equipped with a 5 Fr microtip pressure transducer (pressure transducer catheter, Model MPC-500, MILLAR) was inserted into the left ventricle through the left carotid artery. The conductance catheter and the pressure transducer catheter inserted into the left ventricle were connected to a built-in amplifier in a ventricular volume-measuring instrument (Integral 3; VPR-1002, Unique Medical) and the changes in the left ventricular pressure (LVP) and the volume of the left ventricle were measured simultaneously. To determine the mean blood pressure (MBP), blood pressure was measured via a blood pressure amplifier (AP641G, Nihon Kohden) from the 5 Fr pressure transducer catheter inserted into the left femoral artery. Heart rate (HR) was measured with a cardiotachometer (AT-601G, Nihon Kohden) from the pulse waves of blood pressure.
The chest was opened again at the fourth intercostal space and in order to measure the cardiac output (CO(EMF)) (CO as determined by an electromagnetic blood flowmeter based method), a probe connected to an electromagnetic blood flowmeter (MFV-2100, Nihon Kohden) was fitted at the site of origin of the aorta. A spiral electrode was put in the ischemic region that occurred due to the occlusion of coronary artery and a surface electrocardiogram was recorded. A Doppler probe was fitted on the left anterior descending coronary artery and the blood flow was determined with a Doppler blood flowmeter (PD-20, Crystal Biotech). The anterior descending coronary artery was occluded with pulling up the occluding thread over a period of about 5 minutes. Complete occlusion of the blood vessel was confirmed by the change in the surface electrocardiogram and the disappearance of the Doppler sound. […]

[3] = system: papillary muscle of guinea-pig; test: Myocardial contractility (developed tension) in isolated papillary muscle of guinea-pig; details: for tension development (positive inotropic action) vs baseline: applied cumulatively 10, 30 and 100 μM, n=5, FIG. 1; for change in developed tension: isolated papillary muscle, 1 Hz stimulation
Experimental: The direct effect of pralmorelin on myocardial contractility was evaluated using the isolated cardiac muscle of guinea-pigs according to the standard method for evaluating myocardial contractility.
Male Hartley guinea-pigs (body weight, 301-350 g; Japan SLC) were purchased. The animals were accommodated to an environment at a temperature of 23±2° C. and a humidity of 55±15% under 12-hr light/dark cycles while they were allowed to eat and drink water ad libitum until they weighed 360-480 g. Each test substance was tested on a group of five animals.
The test substances were pralmorelin dihydrochloride (KP-102), representatives of growth hormone secretagogues such as hexarelin, ghrelin and ibutamorelin methanesulfonate (the last being hereunder referred to as MK-0677) (which were prepared by the method described in JP 6-263737 A (kokai)), as well as a recombinant human growth hormone (Sumitomo Pharmaceutical) and amrinone (Sigma) which is a known therapeutic of acute heart failure. KP-102, hexarelin and MK-0677 were dissolved in distilled water. Ghrelin was dissolved in physiological saline. Amrinone was first dissolved in dimethyl sulfoxide and then diluted with physiological saline. The growth hormone was dissolved in a dedicated solubilizer (0.3 w/v % metacresol and 3.9 w/v % D-mannitol). None of the test substance solutions should be added in an amount exceeding 1 w/v %. All reagents other than the test substances were guaranteed products of Nacalai Tesque.
The guinea-pigs were stunned with a blow to the back of their head; thereafter, the carotid artery was incised and the animals were exsanguinated to death. The chest was opened, the blood vessels in the upper part of the heart were cut and the heart was removed. The heart was immediately transferred into a Krebs-Henseleit (K-H) nutrient solution (NaCl, 118.0 mM; KCl, 4.7 mM; CaCl2. 2H2O, 1.0 mM; KH2PO4, 1.2 mM; MgSO4.7H2O, 1.2 mM; NaHCO3, 25.0 mM; glucose, 11.0 mM) that had been fully aerated with 95% O2-5% CO2. The heart was fixed on a rubber-lined Petri dish with needles such that its front face was seen. The ventricular wall of the upper right ventricle (toward the atrium) was excised transversely along the atrium, then excised longitudinally along the interventricular septum so that the ventricular wall was opened to expose the right ventricular papillary muscle. Subsequently, the entire surface of the left ventricle was cut open from the aorta (down) to the apex and the anterior wall of the left ventricle was opened wide, to both right and left, and fixed to expose the papillary muscle of the left ventricle. The tricupsid or mitral valve was cut off from the ventricle and the papillary muscle was cut off at the base to prepare a specimen of papillary muscle. The base of the specimen was fixed to field stimulating electrodes in an organ bath filled with 15 mL of the nutrient solution. The tendinous cord adhering to the valve was tied up with a thread and connected to an FD pickup (TB-612T, Nihon Kohden). A resting tension of 0.5 g was loaded and the papillary muscle was driven with an electric stimulator (SEN-3201, Nihon Kohden) at a frequency of 1 Hz by pulses of 20-ms duration and at a voltage intensity about 1.2 times the threshold. After an equilibration period of about 1 hr, KP-102, hexarelin and amrinone were each applied cumulatively up to amounts of 10, 30 and 100 μM. After examination of the changes in inotropic action due to the application of the test substances, 12.5 mM of CaCl2 was added and the maximum tension that was developed by each specimen was obtained. The developed tension was recorded with a multi-purpose preamplifier (RMP-6008, Nihon Kohden) and a recorder (WT-647G, Nihon Kohden).
Each result was expressed by mean ± standard error. […]

[4] = 300 μg/kg intravenously over one minute, n=4

## C[C@H](NC(=O)[C@@H](Cc1ccc2ccccc2c1)NC(=O)[C@@H](C)N)C(=O)N[C@@H](Cc1c[nH]c2ccccc12)C(=O)N[C@H](Cc1ccccc1)C(=O)N[C@@H](CCCCN)C(N)=O [KP-102, D-alanyl-3-(naphthalen-2-yl)-D-alanyl-L-alanyl-L-tryptophyl-D-phenylalanyl-L-lysinamide] (H-[dA][d2Nal]AW[dF]K-NH2)
[1]; 300 μg/kg intravenously
  onset of cardiotonic action (LVPsys, +dP/dtmax) after administration: beginning one minute after the administration
  overall effect on heart rate: little affected
  time of peak of cardiotonic action after administration: 5 to 10 min
  time until blood pressure baseline value practically restored: ~25 min
[1]; [4]
  maximum increase in +dP/dtmax, of the baseline value: 22%
  maximum increase in LVPsys, of the baseline value: 13%
[1]; 300 μg/kg intravenously, 3 minutes after administration
  heart rate drop from baseline: 2%
[1]; 300 μg/kg intravenously, 15 minutes after administration
  heart rate increase from baseline: 1%
[1]; 300 μg/kg intravenously, 25 minutes after administration
  heart rate increase from baseline: 2%
[1]; 300 μg/kg intravenously, one case with extended monitoring
  time until baseline values (LVPsys, +dP/dtmax) restored: ≤ 40 min
[1]; 300 μg/kg intravenously, p<0.05
  mean blood pressure change vs control group: significant rise of blood pressure
[2]
  change in LVEDP: Neither of the control and KP-102 groups showed changes
  change in LVPsys: Neither of the control and KP-102 groups showed changes
  change in double product (RPP), index of myocardial oxygen consumption: Neither group experienced a change in RPP
  change in heart rate (HR): Neither of MBP and HR changed
  change in mean blood pressure (MBP): Neither of MBP and HR changed
  change in −dP/dtmax vs control group: no significant change
[2]; 5 minutes after administration
  increase in stroke volume (SV) from baseline before administration: 5%
[2]; 10 minutes
  maximal increase in ejection fraction (EF): 10%
[2]; 10 minutes after administration
  increase in +dP/dtmax from baseline before administration: 7%
[2]; 10 minutes after administration, n=5
  maximum increase in cardiac output (CO) from baseline before administration: 7%
[2]; significant vs control
  change in total peripheral resistance (TPR): TPR dropped following the administration
[3]
  tension development (positive inotropic action) vs baseline: significant effect over the baseline value

## CC(C)(N)C(=O)N[C@H](COCc1ccccc1)C(=O)N1CCC2(CC1)CN(S(C)(=O)=O)c1ccccc12 [MK-0677, ibutamorelin methanesulfonate]
[3]; 100 μM
  change in developed tension: no changes in the developed tension

## Nc1cc(-c2ccncc2)c[nH]c1=O [amrinone]
[3]
  tension development (positive inotropic action) vs baseline: increased in a concentration-dependent manner

## Cc1[nH]c2ccccc2c1C[C@@H](NC(=O)[C@@H](N)Cc1cnc[nH]1)C(=O)N[C@@H](C)C(=O)N[C@@H](Cc1c[nH]c2ccccc12)C(=O)N[C@H](Cc1ccccc1)C(=O)N[C@@H](CCCCN)C(N)=O [hexarelin] (H-H[dTrp(2-Me)]AW[dF]K-NH2)
[3]
  tension development (positive inotropic action) vs baseline: very weak and by no means significant over the baseline value

## ghrelin
[3]; 1 μM
  change in developed tension: no changes in the developed tension

## recombinant human growth hormone: recombinant human growth hormone (Sumitomo Pharmaceutical)
[3]; 0.2 IU/mL
  change in developed tension: no changes in the developed tension
